≈ marks a conversion by molar mass, not a printed value.

In ChEMBL document CHEMBL2380193, “New trifluoromethyl quinolone derivatives: synthesis and investigation of antimicrobial properties” (2013) one finds zone of inhibition and MIC data, which are given here for two molecules.

The subject of experiment [1] is Escherichia coli. Put plainly: Antibacterial activity against Escherichia coli MTCC 443 assessed as zone of inhibition at 100 ug/ml after 14 hrs by cup plate method. The experiment is classed as functional. To be noted: MTCC 443, 14 h, read-out: IZ.
Experiment [2] deals with Klebsiella pneumoniae. Put plainly: Antibacterial activity against Klebsiella pneumoniae MTCC 432 assessed as zone of inhibition at 100 ug/ml after 14 hrs by cup plate method. Type of experiment: functional. The note with it: MTCC 432, 14 h, read-out: IZ.
Experiment [3] relates to Aspergillus fumigatus. Put plainly: Antifungal activity against Aspergillus fumigatus MTCC 343 assessed as zone of inhibition at 100 ug/ml after 30 hrs by cup plate method. The note with it: MTCC 343, 30 h, read-out: IZ. The experiment is classed as functional.
The subject of experiment [4] is Aspergillus niger. Briefly: Antifungal activity against Aspergillus niger MTCC 282 after 30 hrs by serial dilution method. The experiment is classed as functional. To be noted: MTCC 282, 30 h.
The test system of experiment [5] is Staphylococcus aureus. Briefly: Antibacterial activity against Staphylococcus aureus MTCC 096 after 14 hrs by serial dilution method. The note with it: MTCC 096, 14 h. The experiment is classed as functional.
The subject of experiment [6] is Candida albicans. Briefly: Antifungal activity against Candida albicans MTCC 227 after 30 hrs by serial dilution method. Type of experiment: functional. The note with it: MTCC 227, 30 h.
For experiment [7], the system named is Aspergillus fumigatus. Put plainly: Antifungal activity against Aspergillus fumigatus MTCC 343 after 30 hrs by serial dilution method. Type of experiment: functional. To be noted: MTCC 343, 30 h.
Experiment [8] has as its system Aspergillus flavus. Put plainly: Antifungal activity against Aspergillus flavus MTCC 277 assessed as zone of inhibition at 100 ug/ml after 30 hrs by cup plate method. The experiment is classed as functional. The note with it: MTCC 277, 30 h, read-out: IZ.
The test system of experiment [9] is Aspergillus flavus. Briefly: Antifungal activity against Aspergillus flavus MTCC 277 after 30 hrs by serial dilution method. The note with it: MTCC 277, 30 h. Type of experiment: functional.
The test system of experiment [10] is Bacillus subtilis. Put plainly: Antibacterial activity against Bacillus subtilis MTCC 441 after 14 hrs by serial dilution method. The experiment is classed as functional. To be noted: MTCC 441, 14 h.
The subject of experiment [11] is Salmonella typhi. Briefly: Antibacterial activity against Salmonella typhi MTCC 733 assessed as zone of inhibition at 100 ug/ml after 14 hrs by cup plate method. The experiment is classed as functional, Salmonella enterica subsp. enterica serovar Typhi. The note with it: Salmonella enterica, MTCC 733, 14 h; read-out: IZ.
The test system of experiment [12] is Salmonella typhi. Briefly: Antibacterial activity against Salmonella typhi MTCC 733 after 14 hrs by serial dilution method. Type of experiment: functional, Salmonella enterica subsp. enterica serovar Typhi. The note with it: Salmonella enterica, MTCC 733, 14 h.
Experiment [13] deals with Staphylococcus aureus. Briefly: Antibacterial activity against Staphylococcus aureus MTCC 096 assessed as zone of inhibition at 100 ug/ml after 14 hrs by cup plate method. Type of experiment: functional. To be noted: MTCC 096, 14 h, read-out: IZ.
Experiment [14] has as its system Aspergillus niger. Briefly: Antifungal activity against Aspergillus niger MTCC 282 assessed as zone of inhibition at 100 ug/ml after 30 hrs by cup plate method. The experiment is classed as functional. The note with it: MTCC 282, 30 h, read-out: IZ.
For experiment [15], the system named is Bacillus subtilis. Briefly: Antibacterial activity against Bacillus subtilis MTCC 441 assessed as zone of inhibition at 100 ug/ml after 14 hrs by cup plate method. Type of experiment: functional. The note with it: MTCC 441, 14 h, read-out: IZ.
For experiment [16], the system named is Klebsiella pneumoniae. Put plainly: Antibacterial activity against Klebsiella pneumoniae MTCC 432 after 14 hrs by serial dilution method. The experiment is classed as functional. The note with it: MTCC 432, 14 h.
Experiment [17] concerns Candida albicans. Put plainly: Antifungal activity against Candida albicans MTCC 227 assessed as zone of inhibition at 100 ug/ml after 30 hrs by cup plate method. Type of experiment: functional. To be noted: MTCC 227, 30 h, read-out: IZ.
The test system of experiment [18] is Escherichia coli. Put plainly: Antibacterial activity against Escherichia coli MTCC 443 after 14 hrs by serial dilution method. The experiment is classed as functional. To be noted: MTCC 443, 14 h.

By MIC is commonly meant the lowest concentration found to suppress growth. Lower therefore signals inhibition by little substance. With `O=C1c2ccccc2C(=O)N1CCCCn1c(C(F)(F)F)cc(=O)c2ccccc21`, the zone of inhibition at 100 µg/mL was under 10 mm with Escherichia coli [1]; 13 mm with Klebsiella pneumoniae [2]; under 10 mm in the experiment on Aspergillus fumigatus [3]; under 10 mm in the experiment with Aspergillus flavus [8]; under 10 mm in the experiment on Salmonella typhi [11]; 13 mm with Staphylococcus aureus [13]. The zone of inhibition at 100 µg/mL in the experiment on Aspergillus niger [14] was 13 mm; with Bacillus subtilis [15], 12 mm; in the experiment with Candida albicans [17], 17 mm. In addition, the MIC in the experiment with Aspergillus niger [4] was found to be 12.5 µg/mL (≈ 30.2 µM); in the experiment on Staphylococcus aureus [5] it was 12.5 µg/mL (≈ 30.2 µM); against Candida albicans [6] it was 6.25 µg/mL (≈ 15.1 µM); in the experiment with Aspergillus fumigatus [7], 25 µg/mL (≈ 60.3 µM); against Aspergillus flavus [9] it was 25 µg/mL (≈ 60.3 µM); against Bacillus subtilis [10] it was 12.5 µg/mL (≈ 30.2 µM). In addition, the MIC against Salmonella typhi [12] is 25 µg/mL (≈ 60.3 µM); in the experiment with Klebsiella pneumoniae [16], 12.5 µg/mL (≈ 30.2 µM); in the experiment with Escherichia coli [18], 50 µg/mL (≈ 121 µM).

`O=C1c2ccccc2C(=O)N1CCCCn1c(C(F)(F)F)cc(=O)c2cc(F)ccc21`: the zone of inhibition at 100 µg/mL was under 10 mm in the experiment with Escherichia coli [1]; 13 mm in the experiment with Klebsiella pneumoniae [2]; 12 mm with Aspergillus fumigatus [3]; under 10 mm in the experiment with Aspergillus flavus [8]; 13 mm in the experiment on Salmonella typhi [11]; 15 mm with Staphylococcus aureus [13]. In addition, the zone of inhibition at 100 µg/mL was 17 mm in the experiment on Aspergillus niger [14], 13 mm in the experiment with Bacillus subtilis [15] and 17 mm with Candida albicans [17]. The minimal inhibitory concentration (MIC) in the experiment with Aspergillus niger [4] was 6.25 µg/mL (≈ 14.5 µM); in the experiment on Staphylococcus aureus [5] it was 6.25 µg/mL (≈ 14.5 µM); in the experiment with Candida albicans [6], 6.25 µg/mL (≈ 14.5 µM); with Aspergillus fumigatus [7], 12.5 µg/mL (≈ 28.9 µM); with Aspergillus flavus [9] it was 25 µg/mL (≈ 57.8 µM); against Bacillus subtilis [10] it was 12.5 µg/mL (≈ 28.9 µM). Further, the minimal inhibitory concentration (MIC) was determined as 12.5 µg/mL (≈ 28.9 µM) against Salmonella typhi [12], 12.5 µg/mL (≈ 28.9 µM) with Klebsiella pneumoniae [16] and 50 µg/mL (≈ 116 µM) against Escherichia coli [18].
